Measured values published in patent US20220142967A1, “Methods and Compositions for the Treatment of Multiple Sclerosis” (SYMBIONYX PHARMACEUTICALS INC, priority 2018, published 2022).
Counter-ions that a name gives are not always drawn.

Molecular target: T1, carboxylesterase 2 (CES2) (Homo sapiens, UniProt O00748)
T1 sequence (O00748 27-559): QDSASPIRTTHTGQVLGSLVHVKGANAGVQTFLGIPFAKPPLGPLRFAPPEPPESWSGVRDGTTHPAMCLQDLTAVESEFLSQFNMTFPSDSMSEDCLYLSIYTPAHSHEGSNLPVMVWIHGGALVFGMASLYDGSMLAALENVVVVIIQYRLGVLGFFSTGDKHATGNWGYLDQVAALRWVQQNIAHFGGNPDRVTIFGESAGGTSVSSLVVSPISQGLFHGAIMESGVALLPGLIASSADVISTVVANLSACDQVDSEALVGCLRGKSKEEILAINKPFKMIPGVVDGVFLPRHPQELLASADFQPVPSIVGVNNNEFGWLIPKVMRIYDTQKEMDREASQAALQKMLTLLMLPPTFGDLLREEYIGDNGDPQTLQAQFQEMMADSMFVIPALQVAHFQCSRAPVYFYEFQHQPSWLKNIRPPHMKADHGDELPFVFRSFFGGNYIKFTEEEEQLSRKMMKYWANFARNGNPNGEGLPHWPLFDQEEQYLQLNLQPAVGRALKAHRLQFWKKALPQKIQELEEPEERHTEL
Test: Carboxylesterase hydrolysis IDMF v DRF
Assay type: in vitro ADME
Conditions: 20 μl of 1 mg/ml CES2, 37° C., pH 7.4
Description: 20 μl of 1 mg/ml carboxylesterase 2 (CES2) was added to each solution and the solutions incubated at 37° C. for the time periods set forth in Table 5. […] Although tolerable for normal patients, HES is undesirable and detrimental for those individuals have kidney and/or liver issues

What does the source list for `COC(=O)/C=C/C(=O)O[C@H]1CO[C@H]2[C@@H]1OC[C@H]2OC(=O)/C=C/C(=O)OC` [IDMF, isosorbide di-(methyl fumarate)]?
remaining parent compound (0 minutes): 1.086 mM; remaining parent compound (15 minutes): 0.113 mM
